Data on 27 compounds can be found in patent US12473296B2, “Perk inhibiting compounds” (HiberCell, Inc., priority 2019, dated 2025).

Structures are written as SMILES.

One assay concerns the target PERK (Homo sapiens (Human), UniProt Q9NZJ5). The assay is described as follows: PERK cellular assay (TR-FRET, HEK293-EGFP-eIF2α cells, tunicamycin-induced ER stress). It counts as cell-based. As to conditions: tunicamycin 2 hours, read-out: Cellular IC50 (μM) (EIF2a). The method, boiled down: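 After 2 h tunicamycin ([…]) stress following 30 min compound pretreatment at 37 °C, lysed HEK293-EGFP-eIF2α cells were read by TR-FRET. IC50 derived by 4-parameter logistic fitting of percent inhibition, DMSO-normalized, from 10-point 3-fold dilutions.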

Assay [1] concerns the target EIF2AK3 (PERK) catalytic domain (amino acids 536-1116) (Homo sapiens (Human), UniProt Q9NZJ5). Put plainly: PERK in vitro activity assay (isolated), TR-FRET kinase assay. To be noted: isolated PERK enzyme, 1.5 μM ATP, GFP-eIF2a substrate; read-out: Biochemical IC50. The method, boiled down: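 Human PERK catalytic domain (aa 536-1116) with 100-200 nM GFP-eIF2a in 50 mM HEPES pH 7.5, 10 mM MgCl2, 1.0 mM EGTA, 0.01% Brij-35; enzyme-started reaction run 45 min at room temperature. Stopped with 10 mM EDTA, 2 nM Tb-anti-phospho-eIF2a added for 90 min; IC50 from TR-FRET ratio by 4-parameter logistic fit.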

Chain of EIF2AK3 (PERK) catalytic domain (amino acids 536-1116) (Q9NZJ5 536-1116): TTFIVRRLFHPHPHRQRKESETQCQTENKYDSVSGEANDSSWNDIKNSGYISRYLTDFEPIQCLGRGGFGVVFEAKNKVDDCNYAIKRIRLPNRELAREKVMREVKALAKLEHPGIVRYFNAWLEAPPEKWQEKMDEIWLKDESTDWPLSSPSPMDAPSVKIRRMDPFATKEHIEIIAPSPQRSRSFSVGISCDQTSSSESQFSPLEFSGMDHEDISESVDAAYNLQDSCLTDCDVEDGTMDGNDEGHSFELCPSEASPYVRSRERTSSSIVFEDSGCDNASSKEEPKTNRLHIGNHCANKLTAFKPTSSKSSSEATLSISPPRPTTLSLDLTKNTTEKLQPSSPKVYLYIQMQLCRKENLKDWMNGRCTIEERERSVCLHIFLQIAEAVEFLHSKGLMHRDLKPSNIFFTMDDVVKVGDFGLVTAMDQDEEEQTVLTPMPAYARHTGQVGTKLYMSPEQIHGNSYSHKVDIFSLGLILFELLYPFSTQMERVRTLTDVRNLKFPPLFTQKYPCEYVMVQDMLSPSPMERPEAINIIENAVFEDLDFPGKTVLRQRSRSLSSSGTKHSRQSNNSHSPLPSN
Chain of PERK (Q9NZJ5 30-1116): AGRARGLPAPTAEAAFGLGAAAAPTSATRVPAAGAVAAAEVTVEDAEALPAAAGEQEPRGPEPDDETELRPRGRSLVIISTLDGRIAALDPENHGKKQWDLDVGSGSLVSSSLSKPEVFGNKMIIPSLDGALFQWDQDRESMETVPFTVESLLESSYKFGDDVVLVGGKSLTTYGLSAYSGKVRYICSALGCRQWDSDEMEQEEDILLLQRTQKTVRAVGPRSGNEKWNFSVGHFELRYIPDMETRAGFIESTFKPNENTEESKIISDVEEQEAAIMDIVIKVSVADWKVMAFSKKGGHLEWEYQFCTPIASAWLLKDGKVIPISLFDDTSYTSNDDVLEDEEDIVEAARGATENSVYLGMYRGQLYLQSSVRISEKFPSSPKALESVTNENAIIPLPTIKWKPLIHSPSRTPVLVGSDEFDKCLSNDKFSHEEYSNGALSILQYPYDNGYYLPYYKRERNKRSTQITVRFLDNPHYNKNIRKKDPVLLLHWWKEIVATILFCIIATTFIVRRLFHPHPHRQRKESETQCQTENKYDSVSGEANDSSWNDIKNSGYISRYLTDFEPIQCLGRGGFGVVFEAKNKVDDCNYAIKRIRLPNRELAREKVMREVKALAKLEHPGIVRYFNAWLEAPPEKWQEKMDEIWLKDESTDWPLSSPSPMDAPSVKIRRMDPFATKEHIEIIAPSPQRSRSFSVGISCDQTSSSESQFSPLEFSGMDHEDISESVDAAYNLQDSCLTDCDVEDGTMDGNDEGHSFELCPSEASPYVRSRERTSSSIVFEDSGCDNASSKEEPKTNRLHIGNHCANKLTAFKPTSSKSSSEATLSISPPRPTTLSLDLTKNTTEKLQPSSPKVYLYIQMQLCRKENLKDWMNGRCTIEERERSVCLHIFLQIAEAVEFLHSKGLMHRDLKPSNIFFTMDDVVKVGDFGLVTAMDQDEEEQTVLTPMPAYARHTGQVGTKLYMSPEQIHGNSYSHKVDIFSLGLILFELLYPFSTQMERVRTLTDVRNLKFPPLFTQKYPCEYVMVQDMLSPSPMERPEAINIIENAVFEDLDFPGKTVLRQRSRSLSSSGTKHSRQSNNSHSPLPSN

As to `Nc1ncc(-c2ccc(NC(=O)C(O)c3cc(F)cc(F)c3)cc2Cl)cc1C(=O)NC1CC1` (stereo not drawn) [Example 85, 2-amino-5-(2-chloro-4-(2-(3,5-difluorophenyl)-2-hydroxyacetamido)phenyl)-N-cyclo-propylnicotinamide], the 50% inhibitory concentration (IC50) at PERK lay in the range of 0.051 to 0.1 µM; in assay [1] it was 1 to 25 nM.
For `Nc1ncc(-c2ccc(NC(=O)C(O)c3cc(F)cc(F)c3)cc2Cl)cc1C(=O)NCC(F)(F)F` (stereo not drawn) [Example 86, 2-amino-5-(2-chloro-4-(2-(3,5-difluorophenyl)-2-hydroxyacetamido)phenyl)-N-(2,2,2-trifluoroethyl) nicotinamide], in that order: 0.001 to 0.025 µM and 1 to 25 nM.
For the compound `Nc1ncc(-c2ccc(NC(=O)C(O)c3cc(F)cc(F)c3)cc2Cl)cc1C(=O)NCC(F)(F)F` (stereo not drawn) [Example 87, 2-amino-5-(2-chloro-4-(2-(3,5-difluorophenyl)-2-hydroxyacetamido)phenyl)-N-(2,2,2-trifluoroethyl) nicotinamide], the half-maximal inhibitory concentration (IC50) on PERK is 0.101 to 0.25 µM; in assay [1] it was 26 to 50 nM.
For the compound `CCc1cccc(C(O)C(=O)Nc2ccc(-c3cnc(N)c(C(=O)NC(C)C)c3)c(Cl)c2)c1` (stereo not drawn) [Example 94, 2-amino-5-(2-chloro-4-(2-(3-ethylphenyl)-2-hydroxyacetamido)phenyl)-N-isopropylnicotinamide], the IC50 on PERK was 0.001 to 0.025 µM; in assay [1], 1 to 25 nM.
`CCc1cccc(C(O)C(=O)Nc2ccc(-c3cnc(N)c(C(=O)NC(C)C)c3)c(Cl)c2)c1` (stereo not drawn) [Example 95, 2-amino-5-(2-chloro-4-(2-(3-ethylphenyl)-2-hydroxyacetamido)phenyl)-N-isopropylnicotinamide]: the IC50 fell in the range of 0.101 to 0.25 µM on PERK and 26 to 50 nM in assay [1].
For `CCNC(=O)c1cc(-c2ccc(NC(=O)C(O)c3cc(F)cc(F)c3)cc2CC)cnc1N` (stereo not drawn) [Example 98, 2-amino-5-(4-(2-(3,5-difluorophenyl)-2-hydroxyacetamido)-2-ethylphenyl)-N-ethylnicotinamide], in that order: 0.001 to 0.025 µM and 1 to 25 nM.
For `CCNC(=O)c1cc(-c2ccc(NC(=O)C(O)c3cc(F)cc(F)c3)cc2CC)cnc1N` (stereo not drawn) [Example 99, 2-amino-5-(4-(2-(3,5-difluorophenyl)-2-hydroxyacetamido)-2-ethylphenyl)-N-ethylnicotinamide], in that order: 0.101 to 0.25 µM and 26 to 50 nM.
For `CCc1cc(NC(=O)C(O)c2cc(F)cc(F)c2)ccc1-c1cnc(N)c(C(=O)NCC(F)(F)F)c1` (stereo not drawn) [Example 100, 2-amino-5-(4-(2-(3,5-difluorophenyl)-2-hydroxyacetamido)-2-ethylphenyl)-N-(2,2,2-trifluoroethyl) nicotinamide], in that order: 0.001 to 0.025 µM and 1 to 25 nM.
Turning to `CCc1cc(NC(=O)C(O)c2cc(F)cc(F)c2)ccc1-c1cnc(N)c(C(=O)NCC(F)(F)F)c1` (stereo not drawn) [Example 101, 2-amino-5-(4-(2-(3,5-difluorophenyl)-2-hydroxyacetamido)-2-ethylphenyl)-N-(2,2,2-trifluoroethyl) nicotinamide], the IC50 on PERK fell in the range of 0.051 to 0.1 µM; in assay [1] it was 1 to 25 nM.
For `CCc1cc(NC(=O)C(O)c2cc(F)cc(F)c2)ccc1-c1cnc(N)c(C(=O)NC2CC2)c1` (stereo not drawn) [Example 102, 2-amino-N-cyclopropyl-5-(4-(2-(3,5-difluorophenyl)-2-hydroxyacetamido)-2-ethylphenyl) nicotinamide] the same measures were 0.001 to 0.025 µM and 1 to 25 nM.
For `CCc1cc(NC(=O)C(O)c2cc(F)cc(F)c2)ccc1-c1cnc(N)c(C(=O)NC2CC2)c1` (stereo not drawn) [Example 103, 2-amino-N-cyclopropyl-5-(4-(2-(3,5-difluorophenyl)-2-hydroxyacetamido)-2-ethylphenyl) nicotinamide], in that order: 0.101 to 0.25 µM and 26 to 50 nM.
For `CCc1cccc(C(O)C(=O)Nc2ccc(-c3cnc(N)c(C(=O)NC(C)C)c3)c(CC)c2)c1` (stereo not drawn) [Example 106, 2-amino-5-(2-ethyl-4-(2-(3-ethylphenyl)-2-hydroxyacetamido)phenyl)-N-isopropylnicotinamide] the same measures were 0.001 to 0.025 µM and 1 to 25 nM.
`CCc1cccc(C(O)C(=O)Nc2ccc(-c3cnc(N)c(C(=O)NC(C)C)c3)c(CC)c2)c1` (stereo not drawn) [Example 107, 2-amino-5-(2-ethyl-4-(2-(3-ethylphenyl)-2-hydroxyacetamido)phenyl)-N-isopropylnicotinamide]: the results for the half-maximal inhibitory concentration (IC50) (at PERK; in assay [1]) were 0.251 to 0.5 µM and 51 to 100 nM, respectively.
For `CCc1cc(NC(=O)C(O)c2cccc(C(F)(F)F)c2)ccc1-c1cnc(N)c(C(=O)NC(C)C)c1` (stereo not drawn) [Example 110, 2-amino-5-(2-ethyl-4-(2-hydroxy-2-(3-(trifluoromethyl)phenyl)acetamido)phenyl)-N-isopropylnicotinamide], in that order: 0.001 to 0.025 µM and 1 to 25 nM.
For `CCc1cc(NC(=O)C(O)c2cccc(C(F)(F)F)c2)ccc1-c1cnc(N)c(C(=O)NC(C)C)c1` (stereo not drawn) [Example 111, 2-amino-5-(2-ethyl-4-(2-hydroxy-2-(3-(trifluoromethyl)phenyl)acetamido)phenyl)-N-isopropylnicotinamide], in that order: 0.101 to 0.25 µM and 101 to 250 nM.
For `COc1cc(NC(=O)C(O)c2cc(F)cc(F)c2)ccc1-c1cnc(N)c(C(=O)NC(C)C)c1` (stereo not drawn) [Example 112, 2-amino-5-(4-(2-(3,5-difluorophenyl)-2-hydroxyacetamido)-2-methoxyphenyl)-N-isopropylnicotinamide] the same measures were 0.251 to 0.5 µM and 51 to 100 nM.
Regarding `CC(C)NC(=O)c1cc(-c2ccc(NC(=O)C(O)c3cc(F)cc(F)c3)cc2OC(F)(F)F)cnc1N` (stereo not drawn) [Example 113, 2-amino-5-(4-(2-(3,5-difluorophenyl)-2-hydroxyacetamido)-2-(trifluoromethoxy)phenyl)-N-isopropylnicotinamide], the concentration for half-maximal inhibition (IC50) lay in the range of 0.501 to 1 µM at PERK and 51 to 100 nM in assay [1].
For `CC(C)NC(=O)c1cc(-c2ccc(NC(=O)C(O)c3cc(F)cc(F)c3)cc2OC(F)(F)F)cnc1N` (stereo not drawn) [Example 114, 2-amino-5-(4-(2-(3,5-difluorophenyl)-2-hydroxyacetamido)-2-(trifluoromethoxy)phenyl)-N-isopropylnicotinamide], in that order: over 5 µM and 251 to 500 nM.
For `Cc1c(-c2cnc(N)c(C(=O)NC(C)C)c2)ccc(NC(=O)C(O)c2cc(F)cc(F)c2)c1F` (stereo not drawn) [Example 115, 2-amino-5-(4-(2-(3,5-difluorophenyl)-2-hydroxyacetamido)-3-fluoro-2-methylphenyl)-N-isopropylnicotinamide] the same measures were 0.001 to 0.025 µM and 1 to 25 nM.
For `Cc1c(-c2cnc(N)c(C(=O)NC(C)C)c2)ccc(NC(=O)C(O)c2cc(F)cc(F)c2)c1F` (stereo not drawn) [Example 116, 2-amino-5-(4-(2-(3,5-difluorophenyl)-2-hydroxyacetamido)-3-fluoro-2-methylphenyl)-N-isopropylnicotinamide] the same measures were 1 to 2 µM and 251 to 500 nM.
For `CCNC(=O)c1cc(-c2ccc(NC(=O)C(O)c3cc(F)cc(F)c3)c(F)c2C)cnc1N` (stereo not drawn) [Example 117, 2-amino-5-(4-(2-(3,5-difluorophenyl)-2-hydroxyacetamido)-3-fluoro-2-methylphenyl)-N-ethylnicotinamide], the IC50 on PERK fell in the range of 0.001 to 0.025 µM; in assay [1] it was 1 to 25 nM.
For `CCNC(=O)c1cc(-c2ccc(NC(=O)C(O)c3cc(F)cc(F)c3)c(F)c2C)cnc1N` (stereo not drawn) [Example 118, 2-amino-5-(4-(2-(3,5-difluorophenyl)-2-hydroxyacetamido)-3-fluoro-2-methylphenyl)-N-ethylnicotinamide], in that order: 0.026 to 0.05 µM and 1 to 25 nM.
For `Cc1c(-c2cnc(N)c(C(=O)NC3CC3)c2)ccc(NC(=O)C(O)c2cc(F)cc(F)c2)c1F` (stereo not drawn) [Example 119, 2-amino-N-cyclopropyl-5-(4-(2-(3,5-difluorophenyl)-2-hydroxyacetamido)-3-fluoro-2-methylphenyl) nicotinamide], in that order: 0.001 to 0.025 µM and 1 to 25 nM.
In the case of `Cc1c(-c2cnc(N)c(C(=O)NC3CC3)c2)ccc(NC(=O)C(O)c2cc(F)cc(F)c2)c1F` (stereo not drawn) [Example 120, 2-amino-N-cyclopropyl-5-(4-(2-(3,5-difluorophenyl)-2-hydroxyacetamido)-3-fluoro-2-methylphenyl) nicotinamide], the values for the concentration for half-maximal inhibition (IC50) (on PERK; in assay [1]) were 0.051 to 0.1 µM and 1 to 25 nM, respectively.
Turning to `Cc1c(-c2cnc(N)c(C(=O)NC3COC3)c2)ccc(NC(=O)C(O)c2cc(F)cc(F)c2)c1F` (stereo not drawn) [Example 121, 2-amino-5-(4-(2-(3,5-difluorophenyl)-2-hydroxyacetamido)-3-fluoro-2-methylphenyl)-N-(oxetan-3-yl)nicotinamide], the half-maximal inhibitory concentration (IC50) was in the range of 0.001 to 0.025 µM at PERK and 1 to 25 nM in assay [1].
For `Cc1c(-c2cnc(N)c(C(=O)NC3COC3)c2)ccc(NC(=O)C(O)c2cc(F)cc(F)c2)c1F` (stereo not drawn) [Example 122, 2-amino-5-(4-(2-(3,5-difluorophenyl)-2-hydroxyacetamido)-3-fluoro-2-methylphenyl)-N-(oxetan-3-yl)nicotinamide], in that order: 0.501 to 1 µM and 251 to 500 nM.
For `CC(C)NC(=O)c1cc(-c2ccc(NC(=O)C(O)c3cc(F)cc(F)c3)c(F)c2Cl)cnc1N` (stereo not drawn) [Example 123, 2-amino-5-(2-chloro-4-(2-(3,5-difluorophenyl)-2-hydroxyacetamido)-3-fluorophenyl)-N-isopropylnicotinamide] the same measures were 0.001 to 0.025 µM and 1 to 25 nM.
